According to patent US10544143B2, “4-azaindole compounds” (BRISTOL-MYERS SQUIBB COMPANY, priority 2017, dated 2020):
Like-named read-outs stand apart in the source and are kept apart here.

Legend:
[1] = target: human TLR9 (Homo sapiens (Human), UniProt Q9NR96); assay: TLR9 inhibition reporter assay (HEK-Blue SEAP); conditions: read-out: TLR9 IC50;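 note: SEAP driven by an IFN-β minimal promoter with NF-κB and AP-1 sites, read after 22 h, compounds dosed 0.05 nM–50 µM, inhibition scaled between agonist plus DMSO and reference-inhibitor wells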
[2] = target: human TLR7 (Homo sapiens (Human), UniProt Q9NYK1); assay: TLR7 inhibition reporter assay (HEK-Blue SEAP); assay type: cell-based
[3] = target: human TLR8 (Homo sapiens (Human), UniProt Q9NR97); assay: TLR8 inhibition reporter assay (HEK-Blue SEAP); conditions: read-out: TLR8 IC50;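 note: SEAP driven by IFN-β minimal promoter carrying NF-κB and AP-1 sites, compounds dosed 0.05 nM to 50 µM for 22 h, inhibition scaled between agonist-plus-DMSO and reference-inhibitor wells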
[4] = HEK-Blue human TLR9 cells, ODN2006 5 nM
[5] = HEK-Blue human TLR7 cells, gardiquimod 7.5 μM
[6] = HEK-Blue human TLR8 cells, R848 15.9 μM
[7] = HEK-Blue cells overexpressing human TLR9, ODN2006 5 nM stimulation, SEAP reporter
[8] = HEK-Blue cells overexpressing human TLR7, gardiquimod 7.5 μM stimulation, SEAP reporter
[9] = HEK-Blue cells overexpressing human TLR8, R848 15.9 μM stimulation, SEAP reporter
[10] = HEK-Blue cells overexpressing human TLR9, SEAP reporter, ODN2006 5 nM
[11] = HEK-Blue cells overexpressing human TLR7, SEAP reporter, gardiquimod 7.5 μM
[12] = HEK-Blue cells overexpressing human TLR8, SEAP reporter, R848 15.9 μM

human TLR9, sequence (Q9NR96 26-1032): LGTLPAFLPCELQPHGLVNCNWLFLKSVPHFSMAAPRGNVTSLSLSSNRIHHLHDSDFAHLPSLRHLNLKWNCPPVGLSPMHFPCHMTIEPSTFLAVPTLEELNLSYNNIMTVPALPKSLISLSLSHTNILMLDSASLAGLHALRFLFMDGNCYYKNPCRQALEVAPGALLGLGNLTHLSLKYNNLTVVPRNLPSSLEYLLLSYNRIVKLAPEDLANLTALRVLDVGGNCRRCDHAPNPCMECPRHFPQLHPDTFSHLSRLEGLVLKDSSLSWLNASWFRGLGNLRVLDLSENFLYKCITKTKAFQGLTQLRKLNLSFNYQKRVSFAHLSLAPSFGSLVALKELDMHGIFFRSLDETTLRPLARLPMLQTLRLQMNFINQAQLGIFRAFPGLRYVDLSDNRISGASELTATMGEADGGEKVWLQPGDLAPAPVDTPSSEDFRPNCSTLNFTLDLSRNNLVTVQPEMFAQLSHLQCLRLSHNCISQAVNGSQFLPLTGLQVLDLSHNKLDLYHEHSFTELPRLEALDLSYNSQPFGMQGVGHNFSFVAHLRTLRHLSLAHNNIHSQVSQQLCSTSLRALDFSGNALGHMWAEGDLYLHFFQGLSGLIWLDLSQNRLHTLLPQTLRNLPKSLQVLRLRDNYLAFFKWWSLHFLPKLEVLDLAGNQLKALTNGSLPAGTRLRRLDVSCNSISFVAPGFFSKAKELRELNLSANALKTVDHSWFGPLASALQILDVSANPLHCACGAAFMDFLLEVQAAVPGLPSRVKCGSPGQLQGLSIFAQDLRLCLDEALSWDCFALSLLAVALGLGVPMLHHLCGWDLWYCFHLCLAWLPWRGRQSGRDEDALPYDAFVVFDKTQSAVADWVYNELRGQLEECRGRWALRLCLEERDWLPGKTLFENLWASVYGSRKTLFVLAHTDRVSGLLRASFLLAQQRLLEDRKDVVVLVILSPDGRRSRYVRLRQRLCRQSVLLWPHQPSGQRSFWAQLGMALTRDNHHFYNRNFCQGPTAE
human TLR7, sequence (Q9NYK1 27-1049): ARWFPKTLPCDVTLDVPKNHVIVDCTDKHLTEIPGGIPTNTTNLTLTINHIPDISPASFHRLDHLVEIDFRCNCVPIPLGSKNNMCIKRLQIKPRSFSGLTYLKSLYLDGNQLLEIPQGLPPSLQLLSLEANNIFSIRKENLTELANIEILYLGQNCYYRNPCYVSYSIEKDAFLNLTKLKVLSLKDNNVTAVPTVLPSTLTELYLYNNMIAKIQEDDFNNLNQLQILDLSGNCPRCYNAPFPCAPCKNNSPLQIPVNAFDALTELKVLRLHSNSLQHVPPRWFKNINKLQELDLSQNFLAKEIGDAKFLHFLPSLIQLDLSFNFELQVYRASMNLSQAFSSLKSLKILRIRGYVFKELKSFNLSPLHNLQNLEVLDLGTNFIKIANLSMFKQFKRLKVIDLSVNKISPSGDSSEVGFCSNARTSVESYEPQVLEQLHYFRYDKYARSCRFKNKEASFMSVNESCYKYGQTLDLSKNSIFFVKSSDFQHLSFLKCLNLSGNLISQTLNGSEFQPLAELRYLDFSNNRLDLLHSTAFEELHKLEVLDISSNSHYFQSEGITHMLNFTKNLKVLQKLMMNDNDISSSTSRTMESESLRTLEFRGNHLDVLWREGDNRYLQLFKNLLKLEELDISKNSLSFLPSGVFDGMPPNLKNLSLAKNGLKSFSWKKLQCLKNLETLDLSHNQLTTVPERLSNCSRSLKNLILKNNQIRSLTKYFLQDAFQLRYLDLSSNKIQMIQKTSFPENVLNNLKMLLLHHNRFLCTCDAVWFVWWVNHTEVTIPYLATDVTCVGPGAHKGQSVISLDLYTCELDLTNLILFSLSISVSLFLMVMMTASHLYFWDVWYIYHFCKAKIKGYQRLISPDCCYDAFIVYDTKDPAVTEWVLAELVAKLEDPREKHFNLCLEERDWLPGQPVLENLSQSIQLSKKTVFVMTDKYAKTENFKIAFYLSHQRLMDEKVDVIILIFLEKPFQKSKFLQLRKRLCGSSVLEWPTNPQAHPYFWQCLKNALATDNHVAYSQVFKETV
human TLR8, sequence (Q9NR97 27-1041): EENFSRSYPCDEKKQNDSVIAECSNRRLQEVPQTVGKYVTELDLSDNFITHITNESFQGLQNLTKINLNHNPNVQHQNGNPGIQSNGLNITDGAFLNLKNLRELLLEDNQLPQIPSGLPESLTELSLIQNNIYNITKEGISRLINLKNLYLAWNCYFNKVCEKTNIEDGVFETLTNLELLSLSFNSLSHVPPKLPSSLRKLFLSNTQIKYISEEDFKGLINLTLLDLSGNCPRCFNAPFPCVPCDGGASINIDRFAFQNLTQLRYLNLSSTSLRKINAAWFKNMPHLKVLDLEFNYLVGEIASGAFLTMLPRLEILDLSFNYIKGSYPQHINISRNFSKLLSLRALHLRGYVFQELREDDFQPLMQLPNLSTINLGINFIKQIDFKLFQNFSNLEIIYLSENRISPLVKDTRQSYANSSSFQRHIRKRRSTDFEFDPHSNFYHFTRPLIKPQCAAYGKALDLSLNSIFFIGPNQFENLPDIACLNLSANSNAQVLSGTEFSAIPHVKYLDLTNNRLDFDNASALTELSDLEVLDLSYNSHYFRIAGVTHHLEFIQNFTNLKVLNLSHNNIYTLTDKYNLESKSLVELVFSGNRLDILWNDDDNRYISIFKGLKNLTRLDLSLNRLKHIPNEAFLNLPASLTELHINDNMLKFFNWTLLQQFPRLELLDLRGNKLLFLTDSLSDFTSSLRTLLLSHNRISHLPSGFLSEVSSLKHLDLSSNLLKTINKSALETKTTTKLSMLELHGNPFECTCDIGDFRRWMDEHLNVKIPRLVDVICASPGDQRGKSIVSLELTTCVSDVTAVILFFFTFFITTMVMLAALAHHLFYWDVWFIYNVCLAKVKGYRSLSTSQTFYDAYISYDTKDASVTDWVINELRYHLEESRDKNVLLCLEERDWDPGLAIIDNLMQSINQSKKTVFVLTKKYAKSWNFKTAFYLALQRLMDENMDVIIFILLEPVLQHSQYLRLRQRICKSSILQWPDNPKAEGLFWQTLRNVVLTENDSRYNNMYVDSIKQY

| SMILES | IC50 [1, 7] [nM] | IC50 [2, 8] [nM] | IC50 [3, 9] [nM] | IC50 [1, 10] [nM] | IC50 [2, 11] [nM] | IC50 [3, 12] [nM] | other results |
| --- | --- | --- | --- | --- | --- | --- | --- |
| Cc1c(-c2[nH]c3ccc(N4C5CNCC4C5)nc3c2C(C)C)cn2ncnc2c1C [Example 978] | – | – | – | – | – | – | IC50 [1, 4]: 11500 nM; IC50 [2, 5]: 11 nM; IC50 [3, 6]: 1.8 nM |
| Cc1c(-c2[nH]c3ccc(C4CCC(NC5COC5)CC4)nc3c2C(C)C)cn2cnnc2c1C (stereo not drawn) [Example 234] | 435 | 1.6 | 5 | – | – | – | – |
| COc1cc(-c2[nH]c3cc(C)c(C4CCC(N)CC4)nc3c2C(C)C)cn2ncnc12 (stereo not drawn) [Example 318] | 1060 | 0.17 | 2.1 | – | – | – | – |
| CC(C)c1c(-c2cn(C)c3ncccc23)[nH]c2ccc(C3CCC(NC4COC4)CC3)nc12 (stereo not drawn) [Example 185] | 10300 | 38 | 110 | – | – | – | – |
| COc1ncnc(OC)c1CNC1CCN(c2ccc3[nH]c(-c4cn5ncnc5c(C)c4C)c(C(C)C)c3n2)CC1 [Example 69] | 25800 | 1310 | 1310 | – | – | – | – |
| COc1cc(-c2[nH]c3ccc(C4CNCCO4)nc3c2C(C)C)cn2ncnc12 (stereo not drawn) [Example 666] | – | – | – | 6560 | 0.73 | 1.6 | – |
| Cc1c(-c2[nH]c3ccc(N4C[C@@H](C)N(C(=O)CN(CCO)C(C)(C)C)[C@H](C)C4)nc3c2C(C)C)cn2ncnc2c1C [Example 930] | – | – | – | – | – | – | IC50 [1, 4]: 24300 nM; IC50 [2, 5]: 22 nM; IC50 [3, 6]: 7.4 nM |
| Cc1c(-c2[nH]c3ccc(N4C[C@@H](C)N(C(=O)CN(C(C)C)C(C)C)C[C@@H]4C)nc3c2C(C)C)cn2ncnc2c1C [Example 910] | – | – | – | – | – | – | IC50 [1, 4]: 5400 nM; IC50 [2, 5]: 0.68 nM; IC50 [3, 6]: 0.86 nM |
| Cc1c(-c2[nH]c3ccc(C4CCC(NC5(C)COC5)CC4)nc3c2C(C)C)cn2ncnc2c1C (stereo not drawn) [Example 472] | – | – | – | 2510 | 0.34 | 1.1 | – |
| CC(=O)N(C)C1CCC(c2ccc3[nH]c(-c4cn5ncnc5c(C)c4C)c(C(C)C)c3n2)CC1 (stereo not drawn) [Example 440] | – | – | – | > 50000 | 6.4 | 14 | – |
| Cc1c(-c2[nH]c3ccc(C4CN(C(C)C)C4)nc3c2C(C)C)cn2ncnc2c1C [Example 656] | – | – | – | 1850 | 1.4 | 4.7 | – |
| COc1cc(-c2[nH]c3ccc(C4CCC(N(CC(=O)N(C)C)CC(=O)N(C)C)C4)nc3c2C(C)C)cn2ncnc12 (stereo not drawn) [Example 722] | – | – | – | 18500 | 6.5 | 46 | – |
| Cc1c(-c2[nH]c3ccc(N4CCC(N(Cc5c[nH]nn5)Cc5c[nH]nn5)CC4)nc3c2C(C)C)cn2ncnc2c1C [Example 48] | 31300 | 7.4 | 9.3 | – | – | – | – |
| COc1cc(-c2[nH]c3cc(C)c(C4CCC(NCC(F)F)CC4)nc3c2C(C)C)cn2ncnc12 (stereo not drawn) [Example 322] | 7410 | 1.7 | 19 | – | – | – | – |
| CNC(=O)CN1CCN(c2ccc3[nH]c(-c4cn5ncnc5c(C)c4C)c(C(C)C)c3n2)[C@@H](C)C1 [Example 812] | – | – | – | – | – | – | IC50 [1, 4]: > 50000 nM; IC50 [2, 5]: 2.2 nM; IC50 [3, 6]: 3.6 nM |
| COc1ncnc(OC)c1CN(Cc1c(OC)ncnc1OC)C1CCN(c2ccc3[nH]c(-c4cn5ncnc5c(C)c4C)c(C(C)C)c3n2)CC1 [Example 71] | 3900 | 99 | 31 | – | – | – | – |
| COc1cc(-c2[nH]c3ccc(C4CN(C(C)C)CCO4)nc3c2C(C)C)cn2ncnc12 (stereo not drawn) [Example 660, 4-isopropyl-2-(3-isopropyl-2-(8-methoxy-[1,2,4]triazolo[1,5-a]pyridin-6-yl)-1H-pyrrolo[3,2-b]pyridin-5-yl)morpholine] | – | – | – | 14400 | 3.3 | 15 | – |
| COc1cc(-c2[nH]c3ccc(C4CCC(N(C)C(C)C)CC4)nc3c2C(C)C)cn2ncnc12 (stereo not drawn) [Example 168] | 658 | 0.89 | 3.4 | – | – | – | – |
| CC(C)c1c(-c2cn(C)c3ncccc23)[nH]c2ccc(C3CCC(NC4CC4)CC3)nc12 (stereo not drawn) [Example 243] | 999 | 7.6 | 9.5 | – | – | – | – |
| Cc1ncc(CN(C)C2CCC(c3ccc4[nH]c(-c5cn6ncnc6c(C)c5C)c(C(C)C)c4n3)CC2)cn1 (stereo not drawn) [Example 394] | 1410 | 1.4 | 1.5 | – | – | – | – |
| Cc1cc2[nH]c(-c3cc(C)c4ncnn4c3)c(C(C)C)c2nc1C1CCN(C2COC2)CC1 [Example 578] | – | – | – | 4190 | 0.53 | 287 | – |
| COc1cc(-c2[nH]c3ccc(C4CCC(N5CCCC5)CC4)nc3c2C(C)C)cn2ncnc12 (stereo not drawn) [Example 195] | 530 | 0.8 | 4.3 | – | – | – | – |
| Cc1c(-c2[nH]c3ccc(N4CC(N5CCS(=O)(=O)CC5)C4)nc3c2C(C)C)cn2ncnc2c1C [Example 41] | > 50000 | 264 | 177 | – | – | – | – |
